From patent US7750155B2, “Pyrazinyl hydroxyacrylamide compounds having an inhibitory effect on the activity of histone deacetylase” (Astellas Pharma Inc., priority 2006, dated 2010)
Where a name gives a salt, the structure may show the parent alone.

Experiments:
[1] = system: T1, human histone deacetylase partially purified from human T cell leukemia Jurkat cells; assay: Test 1: Determination of histone deacetylase inhibitor activity ([3H]acetyl histone deacetylation); type: biochemical; conditions: partially purified human HDAC from Jurkat cells, [3H]acetyl histone substrate, 25° C., 30 minutes; read-out: Test 1: HDAC inhibitory activity IC50
T1 construct: The human histone deacetylase was partially purified from human T cell leukemia Jurkat cells
Protocol: Test 1: Determination of Histone Deacetylase Inhibitor Activity
The partial purification of human histone deacetylase, the preparation of [^3H] acetyl histones, and the assay for histone deacetylase activity were performed basically according to the method as proposed by Yoshida et al. as follows.
Partial Purification of Human Histone Deacetylase
The human histone deacetylase was partially purified from human T cell leukemia Jurkat cells. Jurkat cells (5×10^8 cells) were suspended in 40 mL of the HDA buffer consisting of 15 mM potassium phosphate, pH 7.5, 5% glycerol and 0.2 mM EDTA. After homogenization, nuclei were collected by centrifugation (35,000×g, 10 min) and homogenized in 20 mL of the same buffer supplemented with 1 M (NH4)2SO4. The viscous homogenate was sonicated and clarified by centrifugation (35,000×g, 10 min), and the deacetylase was precipitated by raising the concentration of (NH4)2SO4 to 3.5 M. The precipitated protein was dissolved in 10 mL of the HDA buffer and dialyzed against 4 liters of the same buffer. The dialyzate was then loaded onto a DEAE-cellulose (Whatman DE52) column (25×85 mm) equilibrated with the same buffer and eluted with 300 mL of a linear gradient (0-0.6 M) of NaCl. A single peak of histone deacetylase activity appeared between 0.3 and 0.4 M NaCl.
Preparation of [^3H] Acetyl Histone
To obtain [^3H] acetyl-labeled histone as the substrate for the histone deacetylase assay, 1×10^8 cells of Jurkat in 20 mL of RPMI-1640 medium (supplemented with 10% FBS, penicillin (50 units/mL) and streptomycin (50 μg/mL)) were incubated with 300 MBq [^3H] sodium acetate in the presence of 5 mM sodium butyrate for 30 minutes in 5% CO2-95% air atmosphere at 37° C. in a […] flask, harvested into a centrifuge tube (50 mL), collected by centrifugation at 1000 rpm for 10 minutes, and washed once with phosphate-buffered saline. The washed cells were suspended in 15 mL of ice-cold lysis buffer (10 mM Tris-HCl, 50 mM sodium bisulfite, 1% Triton X-100, 10 mM MgCl2, 8.6% sucrose, pH 6.5). After Dounce homogenization (30 stroke), the nuclei were collected by centrifugation at 1000 rpm for 10 minutes, washed 3 times with 15 mL of the lysis buffer, and once with 15 mL of ice-cooled washing buffer (10 mM Tris-HCl, 13 mM EDTA, pH 7.4) successively. The pellet was suspended in 6 mL of ice-cooled water using a mixer, and 68 μl of H2SO4 was added to the suspension to give a concentration of 0.4 N. After incubation at 4° C. for 1 hour, the suspension was centrifuged for 5 minutes at 15,000 rpm, and the supernatant was taken and mixed with 60 mL of acetone. After overnight incubation at −20° C., the coagulated material was collected by microcentrifugation, air-dried, and stored at −80° C.
Assay for Histone Deacetylase Activity
For the standard assay, 10 μl of [^3H] acetyl-labeled histones were added to 90 μl of the enzyme fraction, and the mixture was incubated at 25° C. for 30 minutes. The reaction was stopped by addition of 10 μl of HCl. The released [^3H] acetic acid was extracted with 1 mL of ethyl acetate, and 0.9 mL of the solvent layer was taken into 10 mL of toluene scintillation solution for determination of radioactivity.

[2] = system: splenic cells of Lewis rats (T lymphocyte blastogenesis); assay: Test 2: T-cell growth inhibitor activity (T lymphocyte blastogenesis, Concanavalin A, AlamarBlue); type: cell-based; conditions: Lewis rat splenic cells, Concanavalin A 1 μg/mL, 72 hours, read-out: Test 2: T-cell growth inhibitory activity IC50
Protocol: Test 2: Determination of T-Cell Growth Inhibitor Activity
The T lymphocyte blastogenesis test was performed in microtiter plates with each well containing 1.5×10^5 splenic cells of Lewis rats in 0.1 mL RPMI-1640 medium supplemented with 10% fetal bovine serum (FBS), […] 2-mercaptoethanol, penicilln (100 units/mL) and streptomycin (100 μg/mL), to which Concanavalin A (1 μg/mL) was added. The cells were incubated at 37° C. in a humidified atmosphere of 5% CO2 for 72 hours. After the culture period, suppressive activities of the test compounds in T lymphocyte blastogenesis were quantified by AlamarBlue (trademark) Assay. The test samples were dissolved in DMSO and further diluted with RPMI-1640 medium and added to the culture. The activities of the test compounds were expressed as IC50.

## O=C(/C=C/c1cnc(N[C@@H]2CCN(CCc3ccc(F)cc3F)C2)cn1)NO [Example 2, (2E)-3-[5-({(3R)-1-[2-(2,4-difluorophenyl)ethyl]-3-pyrrolidinyl}amino)-2-pyrazinyl]-N-hydroxyacrylamide dihydrochloride]
[1]
  IC50: 1.5 nM
[2]
  IC50: 2.3 nM

## O=C(/C=C/c1cnc(N[C@@H]2CCN(CCc3c(F)cccc3F)C2)cn1)NO [Example 3, (2E)-3-[5-({(3R)-1-[2-(2,6-difluorophenyl)ethyl]-3-pyrrolidinyl}amino)-2-pyrazinyl]-N-hydroxyacrylamide dihydrochloride]
[1]
  IC50: 2.7 nM
[2]
  IC50: 1.2 nM

## O=C(/C=C/c1cnc(N[C@@H]2CCN(CCc3cccs3)C2)cn1)NO [Example 4, (2E)-N-hydroxy-3-[5-({(3R)-1-[2-(2-thienyl)ethyl]-3-pyrrolidinyl}amino)-2-pyrazinyl]acrylamide dihydrochloride]
[1]
  IC50: 3.6 nM
[2]
  IC50: 1.2 nM

## O=C(/C=C/c1cnc(N[C@@H]2CCCN(CCc3ccccc3F)C2)cn1)NO [Example 7, (2E)-3-[5-({(3R)-1-[2-(2-fluorophenyl)ethyl]-3-piperidinyl}amino)-2-pyrazinyl]-N-hydroxyacrylamide dihydrochloride]
[1]
  IC50: 1.5 nM
[2]
  IC50: 0.79 nM

## O=C(/C=C/c1cnc(N[C@@H]2CCCN(CCc3ccc(F)cc3F)C2)cn1)NO [Example 8, (2E)-3-[5-({(3R)-1-[2-(2,4-difluorophenyl)ethyl]-3-piperidinyl}amino)-2-pyrazinyl]-N-hydroxyacrylamide dihydrochloride]
[1]
  IC50: 1.7 nM
[2]
  IC50: 1.1 nM

## O=C(/C=C/c1cnc(N[C@@H]2CCCN(CCc3ccc(F)c(F)c3)C2)cn1)NO [Example 9, (2E)-3-[5-({(3R)-1-[2-(3,4-difluorophenyl)ethyl]-3-piperidinyl}amino)-2-pyrazinyl]-N-hydroxyacrylamide dihydrochloride]
[1]
  IC50: 1 nM
[2]
  IC50: 1.8 nM

## CN(C)c1ccccc1CN1CC[C@@H](Nc2cnc(/C=C/C(=O)NO)cn2)C1 [Example 10, (2E)-3-[5-({(3R)-1-[2-(dimethylamino)benzyl]-3-pyrrolidinyl}amino)-2-pyrazinyl]-N-hydroxyacrylamide trihydrochloride]
[1]
  IC50: 3 nM
[2]
  IC50: 3.2 nM

## COc1cc(CN2CC[C@@H](Nc3cnc(/C=C/C(=O)NO)cn3)C2)ccc1F [Example 11, (2E)-3-(5-{[(3R)-1-(4-fluoro-3-methoxybenzyl)-3-pyrrolidinyl]amino}-2-pyrazinyl)-N-hydroxyacrylamide dihydrochloride]
[1]
  IC50: 0.95 nM
[2]
  IC50: 4.5 nM

## O=C(/C=C/c1cnc(N[C@@H]2CCN(CC3CCCC3)C2)cn1)NO [Example 12, (2E)-3-(5-{[(3R)-1-(cyclopentylmethyl)-3-pyrrolidinyl]amino}-2-pyrazinyl)-N-hydroxyacrylamide dihydrochloride]
[1]
  IC50: 0.59 nM
[2]
  IC50: 2 nM

## O=C(/C=C/c1cnc(N[C@@H]2CCN(CC3(CO)CCCCC3)C2)cn1)NO [Example 13, (2E)-N-hydroxy-3-(5-{[(3R)-1-{[1-(hydroxymethyl)cyclohexyl]methyl}-3-pyrrolidinyl]amino}-2-pyrazinyl)acrylamide dihydrochloride]
[1]
  IC50: 1.9 nM
[2]
  IC50: 4.7 nM

## O=C(/C=C/c1cnc(N[C@@H]2CCN(CC34CCC(CC3)O4)C2)cn1)NO [Example 14, (2E)-N-hydroxy-3-(5-{[(3R)-1-(7-oxabicyclo[2.2.1]hept-1-ylmethyl)-3-pyrrolidinyl]amino}-2-pyrazinyl)acrylamide dihydrochloride]
[1]
  IC50: 3.8 nM
[2]
  IC50: 1.2 nM

## COc1ccc(F)cc1CN1CC[C@@H](Nc2cnc(/C=C/C(=O)NO)cn2)C1 [Example 15, (2E)-3-(5-{[(3R)-1-(5-fluoro-2-methoxybenzyl)-3-pyrrolidinyl]amino}-2-pyrazinyl)-N-hydroxyacrylamide dihydrochloride]
[1]
  IC50: 4.4 nM
[2]
  IC50: 6.4 nM

## O=C(/C=C/c1cnc(N[C@@H]2CCN(Cc3cccc4ccccc34)C2)cn1)NO [Example 16, (2E)-N-hydroxy-3-[5-[{(3R)-1-(1-naphthylmethyl)-3-pyrrolidinyl}amino]-2-pyrazinyl]acrylamide dihydrochloride]
[1]
  IC50: 6.6 nM
[2]
  IC50: 4.1 nM

## O=C(/C=C/c1cnc(N[C@@H]2CCCN(CCCc3ccccc3)C2)cn1)NO [Example 17, (2E)-N-hydroxy-3-[5-[{(3R)-1-(3-phenylpropyl)-3-piperidinyl}amino]-2-pyrazinyl]acrylamide dihydrochloride]
[1]
  IC50: 3.3 nM
[2]
  IC50: 5 nM

## O=C(/C=C/c1cnc(N[C@@H]2CCN(CCC3CCCC3)C2)cn1)NO [Example 20, (2E)-3-(5-{[(3R)-1-(2-cyclopentylethyl)-3-pyrrolidinyl]amino}-2-pyrazinyl)-N-hydroxyacrylamide dihydrochloride]
[1]
  IC50: 0.79 nM
[2]
  IC50: 2.1 nM

## O=C(/C=C/c1cnc(N[C@@H]2CCN(CCC3CCCCC3)C2)cn1)NO [Example 21, (2E)-3-(5-{[(3R)-1-(2-cyclohexylethyl)-3-pyrrolidinyl]amino}-2-pyrazinyl)-N-hydroxyacrylamide dihydrochloride]
[1]
  IC50: 0.98 nM
[2]
  IC50: 2.4 nM

## O=C(/C=C/c1cnc(N[C@@H]2CCN(CCc3ccccc3Cl)C2)cn1)NO [Example 22, (2E)-3-[5-({(3R)-1-[2-(2-chlorophenyl)ethyl]-3-pyrrolidinyl}amino)-2-pyrazinyl]-N-hydroxyacrylamide dihydrochloride]
[1]
  IC50: 0.87 nM
[2]
  IC50: 1.3 nM

## O=C(/C=C/c1cnc(N[C@@H]2CCCN(CCC3CCCC3)C2)cn1)NO [Example 24, (2E)-3-(5-{[(3R)-1-(2-cyclopentylethyl)-3-piperidinyl]amino}-2-pyrazinyl)-N-hydroxyacrylamide dihydrochloride]
[1]
  IC50: 0.81 nM
[2]
  IC50: 2.4 nM

## O=C(/C=C/c1cnc(N[C@@H]2CCCN(CCc3ccccc3Cl)C2)cn1)NO [Example 26, (2E)-3-[5-({(3R)-1-[2-(2-chlorophenyl)ethyl]-3-piperidinyl}amino)-2-pyrazinyl]-N-hydroxyacrylamide dihydrochloride]
[1]
  IC50: 1.4 nM
[2]
  IC50: 0.44 nM

## O=C(/C=C/c1cnc(N[C@@H]2CCCN(CCc3ccc(Cl)cc3)C2)cn1)NO [Example 27, (2E)-3-[5-({(3R)-1-[2-(4-chlorophenyl)ethyl]-3-piperidinyl}amino)-2-pyrazinyl]-N-hydroxyacrylamide dihydrochloride]
[1]
  IC50: 0.92 nM
[2]
  IC50: 0.38 nM

## CC(C)(CN1CC[C@@H](Nc2cnc(/C=C/C(=O)NO)cn2)C1)c1ccccc1 [Example 28, (2E)-N-hydroxy-3-[5-[{(3R)-1-(2-methyl-2-phenylpropyl)-3-pyrrolidinyl}amino]-2-pyrazinyl]acrylamide dihydrochloride]
[1]
  IC50: 4.2 nM
[2]
  IC50: 11 nM

## O=C(/C=C/c1cnc(N[C@@H]2CCN(CCCC3CCCCC3)C2)cn1)NO [Example 29, (2E)-3-[5-({(3R)-1-(3-cyclohexylpropyl)-3-pyrrolidinyl}amino)-2-pyrazinyl]-N-hydroxyacrylamide dihydrochloride]
[1]
  IC50: 6.5 nM
[2]
  IC50: 3.3 nM
